Test results: PMC10391911, “Differential effects of two phosphodiesterase 4 inhibitors against lipopolysaccharide-induced neuroinflammation in mice” (BMC Neuroscience, 2023)
Like-named read-outs stand apart in the source and are kept apart here.

Tests used:
MDR1-MDCK monolayer = experiment: Bidirectional MDR1-MDCK monolayer permeability; type: in vitro ADME, canine; details: for P-gp substrate: ER > 2 indicates drug efflux
Protocol: MDR1-MDCK cells were seeded at a density of 2 × 10^5 cells/well on the apical side of 24-transwell plates with a pore size of 0.4 μm (Corning Costar, Cambridge, MA, USA). Each basolateral chamber was filled with 0.6 mL medium, and each apical side with 0.2 mL medium containing cells. The plates seeded with cells were incubated for 3 days. The culture medium was replaced on both the apical and basolateral sides 2 days after seeding. Before the experiment, the transepithelial electrical resistance was measured using an epithelial voltohmmeter (Millicell ERS-2; Millipore), where 300 ohms or greater was considered to indicate the formation of a cell monolayer with tight junctions. The cells were rinsed twice with pre-warmed Hank’s balanced salt solution (HBSS) containing 10 mM of HEPES and were incubated in a CO2 incubator for 30 min. […] After equilibration, the solutions containing the test or reference compounds were added to either the apical side (0.2 mL) or basolateral side (0.6 mL) of the wells, and the plates were incubated in a shaking incubator (37℃, 200 rpm). Samples were collected every 30 min. To test for apical-to-basolateral flow, 110 µL sample was removed from each basolateral chamber; to test for basolateral-to-apical flow, 110 µL sample was taken from each apical chamber; then, each well was replenished with 110 µL fresh HBSS. To each sample, 50 µL internal standard (5 ng/mL disopyramide) in water was added. Samples were prepared for analysis using solid-phase extraction, and the sample concentrations were analyzed via LC-MS/MS. The permeability of the tested compounds was evaluated by calculating the apparent permeability coefficient (Papp, cm/s) and the efflux ratio (ER). The Papp was calculated as follows: [drawing 1] where dQ/dt is the initial permeability rate of the compound across the cells (ng/s), A is the surface area of the cell monolayer (cm^2), and C0 is the initial concentration of the donor side (ng/mL). From the apical-to-basolateral and basolateral-to-apical Papp values, the ER was calculated as follows: [drawing 2]

[1] = tested on: NO production in LPS-induced BV-2 cells; experiment: NO production in LPS-induced BV-2 cells (Griess test); type: cell-based, murine; details: 1 h pretreatment, LPS 1 µg/mL 24 h; for Effect on NO levels: up to 10 µM
Protocol: (§1) BV-2 cells were seeded at a density of 5 × 10^5 cells/mL in 96-well plates. […] Finally, 1 µg/mL LPS was added to the cell culture medium for 24 h to induce inflammation.

in vivo = details: male, C57BL/6J, mouse; for AUC(0-t): AUClast
Protocol: Plasma samples were obtained via centrifugation at 15,000 rpm for 3 min and stored at − 20℃ until LC-MS/MS analysis.
The brain-to-plasma ratio (Kp) and unbound Kp (Kp,uu) were calculated as follows: [drawing 5] [drawing 6]
Pharmacokinetic parameters were calculated via non-compartmental analysis using Phoenix WinNonlin, ver. 8.3 (Pharsight, Mountain View, CA, USA).

[2] = In vitro protein-binding assay using equilibrium dialysis, brain homogenate; type: in vitro ADME, mouse
Protocol: (§2) A rapid equilibrium dialysis device with inserts (cat no. #90,112, Thermo Fisher) was used for the protein-binding assay. […] The samples were incubated for 4 h in a shaking incubator (37℃, 300 rpm). After incubation, 50 µL buffer from the white chamber was added to 50 µL fresh mouse plasma or brain homogenate, and 50 µL dosing solution from the red chamber was added to 50 µL fresh buffer to adjust for matrix effects. To each sample, 200 µL ice-cold acetonitrile with internal standard was added. The samples were centrifuged at 4,000 rpm for 20 min and the supernatants were collected for LC-MS/MS analysis. The unbound fraction of drug (Fu) in plasma and brain tissue was calculated as follows based on previous studies: [drawing 3] [drawing 4]
(§3) where Cprotein-free compartment and Cprotein-containing compartment, D, and dh are the concentrations of drug in the buffer chamber and drug solution chamber, dilution factor, and diluted brain homogenate, respectively.
(§4) The values were calculated using the measured diluted free fractions and the respective dilution factor.

[3] = Brain disposition in mice
Protocol: Residual blood in the brain was removed from circulation via cardiac perfusion with saline solution.
For both plasma and brain samples, 30 µL each sample was vortexed with 270 µL acetonitrile containing disopyramide as the internal standard for protein precipitation.

[4] = tested on: TNF-α, IL-1β, and IL-6 levels in plasma and brain; experiment: In vivo LPS-induced neuroinflammation mouse model, cytokine ELISA; details: 10 mg/kg orally once daily for 4 days, LPS 10 mg/kg i.p., samples 8 h after LPS
Protocol: Eight-week-old male C57BL/6J mice (body weight 22–26 g) were purchased from Orient Bio Inc. (Seongnam, Korea). […] All procedures complied with the Guidelines for the Care and Use of Laboratory Animals of the Animal Ethics Committee of the Korea Research Institute of Chemical Technology.
The tested compounds were solved in the vehicle (10% N-methyl-2-pyrrolidone, 60% polyethylene glycol 400, 30% distilled water) immediately before the experiment. The dosing volume was 5 mL/kg. […] On day 4, all groups (except the control) received an intraperitoneal injection of LPS (10 mg/kg) 2 h after drug administration. Finally, 8 h after LPS injection, the mice were sacrificed via CO2 inhalation. Plasma and brain samples were collected and stored at − 80℃ until analysis.
Frozen brain tissues in cold 0.1 M phosphate-buffered saline were homogenized using the FastPrep-24™ Classic homogenizer (MP Biomedicals, Irvine, California, USA). The homogenates were centrifuged at 15,000 rpm for 10 min, and the supernatants were collected.
To measure TNF-α, IL-1β, and IL-6 levels in each sample, ELISA was performed using mouse TNF-α, IL-1β, and IL-6 ELISA kits (R&D Systems). The absorbance was measured at 450 nm using a spectrophotometer (BioTek).

[5] = tested on: NF-κB signaling pathway in LPS-exposed BV-2 cells; experiment: Western blotting of p-NF-κB and NF-κB in LPS-exposed BV-2 cells; type: cell-based, murine; details: 1 and 10 µM, LPS 1 µg/mL 4 h
Protocol: Then the cells were incubated with or without LPS (1 µg/mL) for 4 h. Cells were harvested using trypsin and washed twice in cold Dulbecco’s phosphate-buffered saline and lysed with RIPA lysis buffer (Elpis, Daejeon, Korea) containing protease and phosphatase inhibitor mini tablets (Thermo Fisher, Waltham, MA, USA). Protein lysate concentrations were determined using the Pierce BCA Protein Assay kit (Thermo Fisher). Protein samples (5 µg) were separated via 5–20% sodium dodecyl sulfate polyacrylamide gel electrophoresis and then transferred to polyvinylidene fluoride membranes (ATTO, Tokyo, Japan). After transfer, membranes were blocked using Tris-buffered saline containing 0.5% Tween 20 and 5% bovine serum albumin at room temperature for 1 h. The membranes were incubated overnight at 4℃ with primary antibodies at a dilution ratio of 1:1000. […] Subsequently, blots were detected using horseradish peroxidase-conjugated secondary antibodies (1:10,000 dilution) and the ECL substrate (Millipore Corporation, Billerica, MA, USA) at room temperature for 1 h. Protein expression levels were measured using WSE-6100 LuminoGraph (ATTO). The bands were analyzed using the ImageJ software (NIH, Bethesda, MD, USA).

[6] = tested on: TNF-α production in LPS-induced BV-2 cells; experiment: TNF-α production in LPS-induced BV-2 cells (ELISA); type: cell-based, murine; details: for Effect on TNF-α levels: up to 10 µM; for IC50: Mus musculus, BV-2, read-out: IC50 against TNF-α
Protocol: as §1

[7] = In vitro protein-binding assay using equilibrium dialysis, plasma; type: in vitro ADME, mouse
Protocol: as §2, §3, §4

[8] = C57BL/6J, mouse, brain, po, 10 mg/kg, 4 h after oral 10 mg/kg, read-out: Concentration, Brain
[9] = C57BL/6J, mouse, brain, po, 10 mg/kg, 4 h after oral 10 mg/kg, read-out: Unbound brain concentration
[10] = C57BL/6J, mouse, brain, po, 10 mg/kg, oral 10 mg/kg, converted from ng/g, read-out: Unbound brain concentration
[11] = C57BL/6J, mouse, plasma, po, 10 mg/kg, 4 h after oral 10 mg/kg, read-out: Concentration, Plasma
[12] = C57BL/6J, mouse, plasma, po, 10 mg/kg, 4 h after oral 10 mg/kg, read-out: Unbound plasma concentration
[13] = 1 h pretreatment, LPS 1 µg/mL 24 h

| SMILES | Permeability class according to FDA guidelines (MDR1-MDCK monolayer) | P-gp substrate (MDR1-MDCK monolayer) | Effect on NO levels [1] | bioavailability (in vivo) | AUC(0-inf) (in vivo; iv, 1 mg/kg) | clearance (in vivo; iv, 1 mg/kg) | half-life (in vivo; iv, 1 mg/kg) | AUC(0-t) (in vivo; iv, 1 mg/kg) | AUC(0-inf) (in vivo; po, 10 mg/kg) | Cmax (in vivo; po, 10 mg/kg) | Tmax (in vivo; po, 10 mg/kg) | half-life (in vivo; po, 10 mg/kg) | AUC(0-t) (in vivo; po, 10 mg/kg) | concentration at 4 h [3, 8] | concentration at 4 h [3, 9] | concentration at 4 h [3, 10] | concentration at 4 h [3, 11] | concentration at 4 h [3, 12] | Effect on TNF-α, IL-1β, and IL-6 levels in plasma and brain [4] | Effect on LPS-induced increase in p-NF-κB expression [5] | also measured |
| --- | --- | --- | --- | --- | --- | --- | --- | --- | --- | --- | --- | --- | --- | --- | --- | --- | --- | --- | --- | --- | --- |
| O=C(Nc1c(Cl)cncc1Cl)c1ccc(OC(F)F)c(OCC2CC2)c1 [roflumilast] | high | not P-gp substrates | dose-dependent decrease | 2.3% | 5070 ± 1100 ng·h/mL | 3.33 mL/min/kg | 3.74 ± 0.71 h | 4890 ± 940 ng·h/mL | 1290 ± 540 ng·h/mL | 150 ± 70 ng/mL | 2.33 ± 1.53 h | 7.13 ± 2.86 h | 1130 ± 540 ng·h/mL | 18.2 ± 12.9 ng/g | 0.07 ng/g | 0.17 nM | 30.6 ± 14.2 ng/mL | 0.39 ng/mL | reduced | prevented the LPS-induced increase in p-NF-κB expression in a concentration-dependent manner | IC50 ([1]; Mus musculus, BV-2, read-out: IC50 against NO): 312 nM; fraction unbound at 4 h, 5 µM ([2]; mouse, brain homogenate): 0.0037 ± 0.002; Effect on TNF-α levels [6, 13]: dose-dependent decrease; IC50 [6, 13]: 12.2 nM; IC50 ([6]; converted from nM): 4.9 ng/mL; fraction unbound at 4 h, 5 µM ([7]; mouse, plasma): 0.0126 ± 0.0058 |
| O=C(O)Cc1ccc(Cc2cc(-c3cccc(Cl)c3)nc(C(F)(F)F)c2)cc1 [zatolmilast] | moderately high | not P-gp substrates | did not have this effect | 3.7% | 86900 ± 10900 ng·h/mL | 0.167 mL/min/kg | 6.35 ± 0.62 h | 81900 ng·h/mL | 62000 ± 31800 ng·h/mL | 2530 ± 860 ng/mL | 2 ± 1.73 h | 20.4 ± 6.77 h | 30300 ± 9640 ng·h/mL | 1200 ± 345 ng/g | 1.7 ng/g | 4.2 nM | 3630 ± 890 ng/mL | 9.57 ng/mL | did not reduce | did not | Efflux ratios (ERs) (MDR1-MDCK monolayer; over 3, 10, and 30 µM): < 2.0; Vd (in vivo; iv, 1 mg/kg): 0.07 ± 0.01 L/kg; fraction unbound at 4 h, 5 µM ([2]; mouse blank brain homogenate, 5 µM, mouse brain homogenate, 4 h dialysis, read-out: Fu, Brain): 0.0014 ± 0.0002; Brain Kp,uu ([3]; 4 h after oral 10 mg/kg, 10 mg/kg): 0.18; Kp at 4 h ([3]; C57BL/6J, mouse, brain and plasma, 4 h after oral 10 mg/kg): 0.33; Kp uu at 4 h ([3]; C57BL/6J, mouse, brain and plasma, po, 10 mg/kg, 4 h after oral 10 mg/kg): < 0.18; Effect on TNF-α levels [6, 13]: did not have this effect; fraction unbound at 4 h, 5 µM ([7]; pooled mouse plasma, 5 µM, mouse plasma, 4 h dialysis, read-out: Fu, Plasma): 0.0026 ± 0.0001 |
